According to patent US8772490B2, “Optically active diazabicyclooctane derivatives and process for preparing the same” (Meiji Seika Pharma Co., Ltd., priority 2010, dated 2014):

Tests used:
AmpC β-lactamase = AmpC β-lactamase (Pseudomonas aeruginosa (strain ATCC 15692 / DSM 22644 / CIP 104116 / JCM 14847 / LMG 12228 / 1C / PRS 101 / PAO1), UniProt P24735); type: biochemical
Description: The biological activity of the above-mentioned compounds represented by formulae (H) and (s) can be measured as follows. […] Further, using constitutive AmpC producing Pseudomonas aeruginosa, a combined antimicrobial activity (MIC) was measured when using Piperacillin (PIPC) as an antibiotic and the compound of formula (H) or (s) in combination to check whether or not the antimicrobial activity of PIPC could be restored.
Using P. aeruginosa PAO1 genome as a template, a DNA for encoding an AmpC β-lactamase domain excluding a signal peptide was amplified with PCR. This PCR product was incorporated into pET-28b(+)vector (Merck), introduced into E. coli BL21 (Merck), and, under induction of 1 mM isopropyl-β-D-(−)-thiogalactopyranoside (Nacalai Tesque), cultured overnight at 20° C. to express AmpC. After the bacterial cell was collected. AmpC was purified from the cell extract obtained by ultrasonic treatment, using CM Sepharose Fast Flow (GE Healthcare) and HiTrap Heparin HP (GE Healthcare) at 4° C.

[1] = test system: P. aeruginosa PAO1 variant, which constitutively expresses AmpC; test: Combinatorial antibacterial activity: MIC of piperacillin (PIPC) with test compound, agar plate dilution; type: cell-based, Pseudomonas aeruginosa; conditions: for MIC (antimicrobial activity of Piperacillin (PIPC) in combination with the compound): Table 7, PIPC in combination with 4 μg/mL of the compound
Description: The biological activity of the above-mentioned compounds represented by formulae (H) and (s) can be measured as follows. Specifically, an enzyme inhibitory activity (IC50 value) against AmpC enzyme which is a class C β-lactamase was determined using nitrocephin as a substrate to check whether or not the compounds had the inhibitory activity and compare the activities of them. Further, using constitutive AmpC producing Pseudomonas aeruginosa, a combined antimicrobial activity (MIC) was measured when using Piperacillin (PIPC) as an antibiotic and the compound of formula (H) or (s) in combination to check whether or not the antimicrobial activity of PIPC could be restored.
The combinatorial effect of the test compound with a β-lactam agent against bacteria was evaluated using AmpC constitutive expression strain selected from P. aeruginosa PAO1 through agent exposure. Using piperacillin (PIPC, Sigma-Aldrich) as a β-lactam agent, measurement was conducted by agar plate dilution process in which minimal inhibitory concentration (MIC) of PIPC is based on Clinical and Laboratory Standards Institute (CLSI process). That is, an agara plate containing 4 μg/mL (final concentration) of test compound and PIPC at each concentration in Mueller-Hinton agar (Becton, Dickinson and Company) was made, and bacteria cultured overnight in cation-adjusted Muller-Hinton broth (Becton, Dickinson and Company) were adjusted in the same medium so as to have 10^4 CFU/spot and inoculated on a plate containing an agent. This plate containing an agent was cultured overnight at 35° C., and the minimum agent concentration in which no growth of bacteria is observed was determined to be MIC.

Sequence of AmpC β-lactamase (P24735 27-397): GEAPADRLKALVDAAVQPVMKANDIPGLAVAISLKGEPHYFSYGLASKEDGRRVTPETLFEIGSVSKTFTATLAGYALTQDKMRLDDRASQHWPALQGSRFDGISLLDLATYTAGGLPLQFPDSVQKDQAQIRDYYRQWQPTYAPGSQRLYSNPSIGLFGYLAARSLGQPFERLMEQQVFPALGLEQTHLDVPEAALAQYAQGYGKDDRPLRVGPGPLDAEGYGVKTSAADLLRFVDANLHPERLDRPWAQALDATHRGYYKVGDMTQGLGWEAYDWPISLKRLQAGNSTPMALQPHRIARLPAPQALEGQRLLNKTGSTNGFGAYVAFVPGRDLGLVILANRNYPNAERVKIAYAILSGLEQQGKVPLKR

SMILES | β-lactamase enzyme inhibitory activity (in words) (AmpC β-lactamase) | effect of the compound in combination with an antibiotic (in words) [1] | MIC (antimicrobial activity of Piperacillin (PIPC) in combination with the compound) [1] [µg/mL]
NC(=O)[C@@H]1CC[C@@H]2CN1C(=O)N2OS(=O)(=O)[O-].[Na+] [Example 23, (2S,5R)-1,6-Diazabicyclo[3.2.1]octane-2-carboxamide, 7-oxo-6-(sulfoxy)-monosodium salt] | exhibited the activities | exhibited the activities | 4
NC(=O)[C@H]1CC[C@H]2CN1C(=O)N2OS(=O)(=O)[O-].[Na+] [Example 24, (2R,5S)-1,6-Diazabicyclo[3.2.1]octane-2-carboxamide, 7-oxo-6-(sulfoxy)-monosodium salt] | exhibited no activity | exhibited no activity | 64
C[C@]1(Cn2ccnn2)[C@H](C(=O)[O-])N2C(=O)C[C@H]2S1(=O)=O.[Na+] [TAZ, Tazobactam, reference compound] |  |  | 64
